According to patent US20170326125A1, “MULTISUBSTITUTED AROMATIC COMPOUNDS AS INHIBITORS OF THROMBIN” (VERSEON CORPORATION, priority 2016, published 2017):

Target: T1, Human thrombin (Homo sapiens, UniProt P00734)
T1 construct: purchased Haematologic Technologies Inc
Assay: Inhibition of the protease activity of thrombin (chromogenic substrate S-2238)
Assay type: biochemical
Protocol: Compounds described herein can be assayed, by a variety of methods known in the art and described herein, for inhibition of biological activity, e.g., protease activity, of a variety of proteins, e.g., thrombin.
The thrombin activity reported herein (e.g., Table A) was obtained as follows. Human thrombin was obtained from Haematologic Technologies Inc. The chromogenic
Thrombin was assayed in buffer containing 0.05 M Tris (pH 7.4), 0.015 M NaCl and 0.01% PEG-8000. The final concentration of enzyme used was 3 nM thrombin. […] All assays were performed in 96-well microtiter plates at room temperature (RT). […] Inhibitor IC50 values were determined by adding test compound as ten point, three-fold serial dilutions in buffer solution, as known in the art. The plate was read at 10 minutes after substrate addition. The IC50 was calculated by plotting the percent (%) inhibition against compound concentration and fitting the data to a constrained four parameter sigmoidal curve, as known in the art.

[1] = Table C, 3 nM thrombin, 125 μM S-2238, 10 min pre-incubation, RT
[2] = inhibition of the protease activity of thrombin, class symbols a/b/c

IC50 [1]	IC50 [2]	SMILES
> 1000 nM	–	Nc1nc(-c2cccnc2)n[nH]1 [Cmpd 1, 3-(pyridin-3-yl)-1H-1,2,4-triazol-5-amine]
> 1000 nM	–	Nc1n[nH]c(-c2ccccn2)n1 [Cmpd 2, 3-(pyridin-2-yl)-1H-1,2,4-triazol-5-amine]
> 1000 nM	–	Nc1n[nH]c(-c2ccncc2)n1 [Cmpd 3, 3-(pyridin-4-yl)-1H-1,2,4-triazol-5-amine]
–	> 1000 nM	Fc1ccc(CNc2nc(-c3cccnc3)n[nH]2)cc1 [Cmpd 4]
100 to 1000 nM	–	CCC(=O)n1nc(-c2cccnc2)nc1NCc1cccc(F)c1 [Cmpd 8, 1-(5-[(3-fluorophenyl)methyl]amino-3-(pyridin-3-yl)-1H-1,2,4-triazol-1-yl)propan-1-one]
–	100 to 1000 nM	CCC(=O)n1nc(-c2cccnc2)nc1NCc1ccccc1F [Cmpd 9]
–	> 1000 nM	CCC(=O)n1nc(-c2cccnc2)nc1NCc1ccc(C#N)cc1 [Cmpd 10]
–	< 100 nM	O=C(c1ccccc1)n1nc(-c2ccncc2)nc1NCc1ccc(F)cc1 [Cmpd 14]
–	< 100 nM	O=C(c1ccsc1)n1nc(-c2ccncc2)nc1NCc1ccc(F)cc1 [Cmpd 15]
–	< 100 nM	COc1ccc(CNc2nc(-c3ccncc3)nn2C(=O)C(C)(C)C)cc1 [Cmpd 16]
–	> 1000 nM	O=C(N1CCOCC1)n1nc(-c2cccnc2)nc1NCc1ccc(F)cc1 [Cmpd 17]
–	> 1000 nM	O=C(Nc1ccccc1F)n1nc(-c2cccnc2)nc1NCc1ccc(F)cc1 [Cmpd 18]
–	> 1000 nM	CNC(=O)n1nc(-c2cccnc2)nc1NCc1ccc(F)cc1 [Cmpd 19]
–	100 to 1000 nM	COC(=O)n1nc(-c2cccnc2)nc1NCc1ccc(F)cc1 [Cmpd 20]
–	> 1000 nM	O=C(Cn1nc(-c2cccnc2)nc1NCc1ccc(F)cc1)c1ccccc1 [Cmpd 21]
–	> 1000 nM	CCC(=O)n1nc(-c2cccnc2)nc1NCCc1ccccc1 [Cmpd 22]
–	> 1000 nM	CCC(=O)n1nc(-c2cccnc2)nc1NCCN1CCOCC1 [Cmpd 23]
–	> 1000 nM	CCC(=O)n1nc(-c2cccnc2)nc1N(C)C [Cmpd 24]
> 1000 nM	–	Nc1nc(-c2ccco2)n[nH]1 [Cmpd 25, 3-(furan-2-yl)-1H-1,2,4-triazol-5-amine]
–	< 100 nM	COc1ccccc1C(=O)n1nc(-c2ccco2)nc1NCc1ccc(F)cc1 [Cmpd 26]
–	100 to 1000 nM	COc1ccccc1C(=O)n1nc(-c2cccs2)nc1NCc1ccc(F)cc1 [Cmpd 27]

IC50 [1]	IC50 [2]	SMILES
–	< 100 nM	COc1ccccc1C(=O)n1nc(-c2ccncn2)nc1NCc1ccccc1 [Cmpd 33]
–	< 100 nM	COc1ccccc1C(=O)n1nc(-c2cncnc2)nc1NCc1ccccc1 [Cmpd 34]
–	< 100 nM	COc1ccccc1C(=O)n1nc(-c2ncccn2)nc1NCc1ccccc1 [Cmpd 35]
–	> 1000 nM	Cc1c(-c2ccccc2)nn(C(=O)C(C)(C)C)c1NCc1ccc(F)cc1 [Cmpd 38]
–	100 to 1000 nM	O=C(c1ccccc1Cl)n1nc(-c2ccccn2)cc1NCc1ccc(F)cc1 [Cmpd 41]
–	> 1000 nM	Nc1cc(-c2ccccn2)nn1-c1ccccc1Cl [Cmpd 42]
–	> 1000 nM	O=C(Nc1cc(-c2ccccn2)nn1-c1ccccc1Cl)c1ccc(F)cc1 [Cmpd 43]
–	> 1000 nM	Fc1ccc(CN(Cc2ccc(F)cc2)c2cc(-c3ccccn3)nn2-c2ccccc2Cl)cc1 [Cmpd 44]
–	> 1000 nM	Fc1ccc(CNc2cc(-c3ccccn3)nn2-c2ccccc2Cl)cc1 [Cmpd 45]
–	> 1000 nM	CCOC(=O)c1cn(-c2ccccn2)nc1NCc1ccc(F)cc1 [Cmpd 46]
–	> 1000 nM	O=C(O)c1cn(-c2ccccn2)nc1NCc1ccc(F)cc1 [Cmpd 47]
–	> 1000 nM	CON(C)C(=O)c1cn(-c2ccccn2)nc1NCc1ccc(F)cc1 [Cmpd 48]
–	> 1000 nM	CN(C)C(=O)c1cn(-c2ccccn2)nc1NCc1ccc(F)cc1 [Cmpd 49]
–	> 1000 nM	CCC(=O)c1cn(-c2ccccn2)nc1NCc1ccc(F)cc1 [Cmpd 50]
–	> 1000 nM	CCOC(=O)c1cc(-c2ccccn2)nn1CCc1ccc(F)cc1 [Cmpd 51]
–	> 1000 nM	O=C(O)c1cc(-c2ccccn2)nn1CCc1ccc(F)cc1 [Cmpd 52]
–	> 1000 nM	CON(C)C(=O)c1cc(-c2ccccn2)nn1CCc1ccc(F)cc1 [Cmpd 53]
–	> 1000 nM	O=C(c1cc(-c2ccccn2)nn1CCc1ccc(F)cc1)N1CCCCC1 [Cmpd 54]
–	> 1000 nM	CCC(O)c1cc(-c2ccccn2)nn1CCc1ccc(F)cc1 (stereo not drawn) [Cmpd 55]
–	> 1000 nM	CCOC(=O)c1cc(-c2ccccn2)n(CCc2ccc(F)cc2)n1 [Cmpd 57]
–	> 1000 nM	O=C(O)c1cc(-c2ccccn2)n(CCc2ccc(F)cc2)n1 [Cmpd 58]

IC50 [1]	IC50 [2]	SMILES
–	> 1000 nM	O=C(c1cc(-c2ccccn2)n(CCc2ccc(F)cc2)n1)N1CCCCC1 [Cmpd 59]
–	> 1000 nM	CC(=O)c1cn(-c2ccccn2)nc1NCc1ccc(F)cc1 [Cmpd 60, 1-(3-[(4-fluorophenyl)methyl]amino-1-(pyridin-2-yl)-1H-pyrazol-4-yl)ethan-1-one]
–	> 1000 nM	CC(=O)c1cn(-c2ccccc2)nc1NCc1ccc(F)cc1 [Cmpd 61, 1-(3-[(4-fluorophenyl)methyl]amino-1-phenyl-1H-pyrazol-4-yl)ethan-1-one]
–	> 1000 nM	CCC(=O)c1cn(-c2ccccc2)nc1NCc1ccc(F)cc1 [Cmpd 62, 1-(3-[(4-fluorophenyl)methyl]amino-1-phenyl-1H-pyrazol-4-yl)propan-1-one]
–	< 100 nM	CCC(=O)n1nc(-c2ccco2)nc1NCc1ccc(F)cc1 [Cmpd 63, 1-(5-[(4-fluorophenyl)methyl]amino-3-(furan-2-yl)-1H-1,2,4-triazol-1-yl)propan-1-one]
–	< 100 nM	O=C(Cc1ccccc1)n1nc(-c2ccccn2)nc1NCc1ccc(F)cc1 [Cmpd 66, 1-(5-[(4-fluorophenyl)methyl]amino-3-(pyridin-2-yl)-1H-1,2,4-triazol-1-yl)-2-phenylethan-1-one]
–	< 100 nM	CC(C)CC(=O)n1nc(-c2ccccn2)nc1NCc1ccc(F)cc1 [Cmpd 67, 1-(5-[(4-fluorophenyl)methyl]amino-3-(pyridin-2-yl)-1H-1,2,4-triazol-1-yl)-3-methylbutan-1-one]
–	< 100 nM	O=C(CCc1ccccc1)n1nc(-c2ccccn2)nc1NCc1ccc(F)cc1 [Cmpd 68, 1-(5-[(4-fluorophenyl)methyl]amino-3-(pyridin-2-yl)-1H-1,2,4-triazol-1-yl)-3-phenylpropan-1-one]
–	< 100 nM	CCCC(=O)n1nc(-c2ccccn2)nc1NCc1ccc(F)cc1 [Cmpd 69, 1-(5-[(4-fluorophenyl)methyl]amino-3-(pyridin-2-yl)-1H-1,2,4-triazol-1-yl)butan-1-one]
–	< 100 nM	CC(C)(C)C(=O)n1nc(-c2cccnc2)nc1NCc1ccc(F)cc1 [Cmpd 71, 1-(5-[(4-fluorophenyl)methyl]amino-3-(pyridin-3-yl)-1H-1,2,4-triazol-1-yl)-2,2-dimethylpropan-1-one]
–	> 1000 nM	CC(C)(C)C(=O)Cn1nc(-c2cccnc2)nc1NCc1ccc(F)cc1 [Cmpd 72, 1-(5-[(4-fluorophenyl)methyl]amino-3-(pyridin-3-yl)-1H-1,2,4-triazol-1-yl)-3,3-dimethylbutan-2-one]
–	> 1000 nM	CC(=O)Cn1nc(-c2cccnc2)nc1NCc1ccc(F)cc1 [Cmpd 73, 1-(5-[(4-fluorophenyl)methyl]amino-3-(pyridin-3-yl)-1H-1,2,4-triazol-1-yl)propan-2-one]
–	> 1000 nM	CCC(=O)n1nc(-c2cccnc2)cc1NCc1ccc(F)cc1 [Cmpd 74, 1-(5-[(4-fluorophenyl)methyl]amino-3-(pyridin-3-yl)-1H-pyrazol-1-yl)propan-1-one]
–	< 100 nM	CC(C)(C)C(=O)n1nc(-c2ccncc2)nc1NCc1ccc(F)cc1 [Cmpd 75, 1-(5-[(4-fluorophenyl)methyl]amino-3-(pyridin-4-yl)-1H-1,2,4-triazol-1-yl)-2,2-dimethylpropan-1-one]
–	< 100 nM	CC(C)C(=O)n1nc(-c2ccncc2)nc1NCc1ccc(F)cc1 [Cmpd 76, 1-(5-[(4-fluorophenyl)methyl]amino-3-(pyridin-4-yl)-1H-1,2,4-triazol-1-yl)-2-methylpropan-1-one]
–	< 100 nM	O=C(Cc1ccccc1)n1nc(-c2ccncc2)nc1NCc1ccc(F)cc1 [Cmpd 77, 1-(5-[(4-fluorophenyl)methyl]amino-3-(pyridin-4-yl)-1H-1,2,4-triazol-1-yl)-2-phenylethan-1-one]
–	< 100 nM	CC(C)CC(=O)n1nc(-c2ccncc2)nc1NCc1ccc(F)cc1 [Cmpd 78, 1-(5-[(4-fluorophenyl)methyl]amino-3-(pyridin-4-yl)-1H-1,2,4-triazol-1-yl)-3-methylbutan-1-one]
–	< 100 nM	O=C(CCc1ccccc1)n1nc(-c2ccncc2)nc1NCc1ccc(F)cc1 [Cmpd 79, 1-(5-[(4-fluorophenyl)methyl]amino-3-(pyridin-4-yl)-1H-1,2,4-triazol-1-yl)-3-phenylpropan-1-one]
–	< 100 nM	CCCC(=O)n1nc(-c2ccncc2)nc1NCc1ccc(F)cc1 [Cmpd 80, 1-(5-[(4-fluorophenyl)methyl]amino-3-(pyridin-4-yl)-1H-1,2,4-triazol-1-yl)butan-1-one]
–	< 100 nM	CCC(=O)n1nc(-c2ccncc2)nc1NCc1ccc(F)cc1 [Cmpd 81, 1-(5-[(4-fluorophenyl)methyl]amino-3-(pyridin-4-yl)-1H-1,2,4-triazol-1-yl)propan-1-one]
–	< 100 nM	CC(C)(C)C(=O)n1nc(-c2cccs2)nc1NCc1ccc(F)cc1 [Cmpd 82, 1-(5-[(4-fluorophenyl)methyl]amino-3-(thiophen-2-yl)-1H-1,2,4-triazol-1-yl)-2,2-dimethylpropan-1-one]
